Columns and labels:
[1] = Malodor control performance, headspace SPME GC/MS, nonanal; conditions: 5 ml test solution spiked with 5 microliters; 2 h room temperature, 30 min 35° C.; Control = 1.0; pH 7 (ZnCl2 pH 5)
Procedure: (§1) This example illustrates the malodor efficacy of the HMPs of the present invention. Isovaleric acid was chosen as a chemical surrogate for body odor while butylamine was used as a representative for amine-containing odors such as fish, pet urine, etc. Hydrophobic greasy cooking odors were represented by aldehydes such as nonanal. The solutions are first equilibrated at room temperature for 2 hours, then incubated at 35° C. for 30 minutes. The headspace of each vial is finally sampled using a polydimethyl siloxane (PDMS)/Solid-Phase-Micro-Extraction (SPME) fiber and analyzed by GC/MS. The reductions in head space concentrations of odor molecules are measured and the data are normalized to Control. Lower numbers denote […] of malodor molecules present in the solution that are attributed to high malodor control efficacy of polymers.

[2] = Sulfur odor control performance, headspace SPME GC/MS, dipropylsulfide; conditions: 5 ml test solution spiked with 3 ppm; 2 h room temperature, 30 min 35° C.; Control = 1.0
Procedure: (§2) Butanethiol and dipropoyl sulfide were chosen as chemical surrogates for sulfur containing odors such as kitchen (onion/garlic), sewage, etc. These two molecules also enable the assessment of efficacy of polymer for sulfur molecules having different degrees of hydrophobicity (e.g more hydrophobic dipropylsulfide is usually harder to mitigate with hydrophilic technologies such as cyclodextrin). 5 ml test solution was placed in a GC-MS vial and spiked with 3 parts-per-million of butanethiol or dipropylsulfide. The solutions were first equilibrated at room temperature for 2 hours, then incubated at 35° C. for 30 minutes. The headspace of each vial was finally sampled using a PDMS/SPME fiber and analyzed by GC/MS. The reductions in head space concentrations of sulfur molecules were measured and the data were normalized to Control (Table 4).

[3] = Malodor control performance, headspace SPME GC/MS, isovaleric acid; conditions: 5 ml test solution spiked with 5 microliters; 2 h room temperature, 30 min 35° C.; Control = 1.0; pH 7 (ZnCl2 pH 5)
Procedure: as §1

[4] = Sulfur odor control performance, headspace SPME GC/MS, butanethiol; conditions: 5 ml test solution spiked with 3 ppm; 2 h room temperature, 30 min 35° C.; Control = 1.0
Procedure: as §2

[5] = Malodor control performance, headspace SPME GC/MS, butylamine; conditions: 5 ml test solution spiked with 5 microliters; 2 h room temperature, 30 min 35° C.; Control = 1.0; pH 7 (ZnCl2 pH 5)
Procedure: as §1

[6] = test system: microbes of soiled sponge samples; experiment: Odor prevention through microbe reduction, SOLARIS colorimetric detection on soiled sponge; type: cell-based; conditions: soiled sponge treated 15 min, dried 12 h; incubated 120 hrs at 37° C.; Control 2.35 hrs
Procedure: The Control formulation containing no malodor control polymer or zinc salt, and Formulations containing individual polymers, zinc salts, and zinc-polymer complexes are compared for their effect on odor prevention, through microbe reduction.
Soiled sponge samples were cut into 1×6 cm strips and treated with the solutions (Table 5) for 15 minutes and dried at ambient temperature for 12 hours. The treated 1 cm strips were then cut into 1×1 cm pieces, placed into SOLARIS scintillation vials, and 1 ml of MOPS buffer was added. The open vials were placed into outer SOLARIS vials containing thymolphthalein blue pH indicator and the vials were finally capped. The sealed vials were placed into a SOLARIS machine and incubated for 120 hrs at 37° C. Colorimetric measurements were conducted according to SOLARIS VIV protocol and the detection times of acidic respiratory byproducts were record (Table 5).

[7] = benchmark values; cited from earlier work

Compound	head space concentration of Nonanal (Grease) normalized to Control [1]	head space concentration of Dipropylsulfide normalized to Control [2]	head space concentration of Isovaleric Acid (Body) normalized to Control [3]	head space concentration of Butanethiol normalized to Control [4]	head space concentration of Butylamine (Fish) normalized to Control [5]	Respiratory Byproducts Detection Time [6] [h]	ambient temperature water solubility (benchmark) [7] [g/100 ml]
[Cl-].[Cl-].[Zn+2] [ZnCl2, zinc chloride]	1.0	1.0	1.0	0.8	0.0	3.38	
OC[C@H]1O[C@@H]2O[C@H]3[C@H](O)[C@@H](O)[C@@H](O[C@H]4[C@H](O)[C@@H](O)[C@@H](O[C@H]5[C@H](O)[C@@H](O)[C@@H](O[C@H]6[C@H](O)[C@@H](O)[C@@H](O[C@H]7[C@H](O)[C@@H](O)[C@@H](O[C@H]8[C@H](O)[C@@H](O)[C@@H](O[C@H]1[C@H](O)[C@H]2O)O[C@@H]8CO)O[C@@H]7CO)O[C@@H]6CO)O[C@@H]5CO)O[C@@H]4CO)O[C@@H]3CO [beta-cyclodextrin]							1.8
hydroxypropyl modified beta cyclodextrin							≥ 60
